≈ marks a conversion by molar mass, not a printed value. Where two headings read alike, the source gives them in different places.
Legend:
[1] = test system: DU145 cells; assay: cell viability MTT assay, DU145; type: cell-based, human; details: mean ± SD of two experiments, read-out: DU145 antiproliferative activity IC50
Method: The antiproliferative activity of all compounds was evaluated in (i) DU145, an androgen-independent prostate cancer cell line; (ii) HeLa, a cervical cancer cell line; and (iii) A549, a lung adenocarcinoma cell line (Table 1). […] Undoubtedly, this preliminary cytotoxicity data will need further characterization, also in relation to the in vitro activity of these compounds.
Human cancer cell lines A549 (lung adenocarcinoma, ATCC CCL-185), DU-145 (androgen-independent prostate cancer, ATCC HTB-81), and HeLa (cervical carcinoma, ATCC CCL-2) were obtained from ATCC. Cells were routinely grown in minimal essential medium containing Eagle’s salts and L-glutamine supplemented with 10% heat-inactivated FBS in a humidified atmosphere of 5% CO2 at 37 °C. To assess the antiproliferative activity of the compounds, cells were seeded at a density of 2500 cells/well (HeLa) or 5000 cells/well (A549, DU-145) in 96-well plates, and cell viability was measured using the MTT assay as described previously.[39] Values are reported as the mean ± SD of two independent experiments.

[2] = target: T1, topoII/DNA cleavage complex (Homo sapiens, UniProt P11388); assay: topoisomerase II cleavage complex assay; type: biochemical
T1 construct: purchased Inspiralis
T1 sequence (P11388 whole entry, one chain of several): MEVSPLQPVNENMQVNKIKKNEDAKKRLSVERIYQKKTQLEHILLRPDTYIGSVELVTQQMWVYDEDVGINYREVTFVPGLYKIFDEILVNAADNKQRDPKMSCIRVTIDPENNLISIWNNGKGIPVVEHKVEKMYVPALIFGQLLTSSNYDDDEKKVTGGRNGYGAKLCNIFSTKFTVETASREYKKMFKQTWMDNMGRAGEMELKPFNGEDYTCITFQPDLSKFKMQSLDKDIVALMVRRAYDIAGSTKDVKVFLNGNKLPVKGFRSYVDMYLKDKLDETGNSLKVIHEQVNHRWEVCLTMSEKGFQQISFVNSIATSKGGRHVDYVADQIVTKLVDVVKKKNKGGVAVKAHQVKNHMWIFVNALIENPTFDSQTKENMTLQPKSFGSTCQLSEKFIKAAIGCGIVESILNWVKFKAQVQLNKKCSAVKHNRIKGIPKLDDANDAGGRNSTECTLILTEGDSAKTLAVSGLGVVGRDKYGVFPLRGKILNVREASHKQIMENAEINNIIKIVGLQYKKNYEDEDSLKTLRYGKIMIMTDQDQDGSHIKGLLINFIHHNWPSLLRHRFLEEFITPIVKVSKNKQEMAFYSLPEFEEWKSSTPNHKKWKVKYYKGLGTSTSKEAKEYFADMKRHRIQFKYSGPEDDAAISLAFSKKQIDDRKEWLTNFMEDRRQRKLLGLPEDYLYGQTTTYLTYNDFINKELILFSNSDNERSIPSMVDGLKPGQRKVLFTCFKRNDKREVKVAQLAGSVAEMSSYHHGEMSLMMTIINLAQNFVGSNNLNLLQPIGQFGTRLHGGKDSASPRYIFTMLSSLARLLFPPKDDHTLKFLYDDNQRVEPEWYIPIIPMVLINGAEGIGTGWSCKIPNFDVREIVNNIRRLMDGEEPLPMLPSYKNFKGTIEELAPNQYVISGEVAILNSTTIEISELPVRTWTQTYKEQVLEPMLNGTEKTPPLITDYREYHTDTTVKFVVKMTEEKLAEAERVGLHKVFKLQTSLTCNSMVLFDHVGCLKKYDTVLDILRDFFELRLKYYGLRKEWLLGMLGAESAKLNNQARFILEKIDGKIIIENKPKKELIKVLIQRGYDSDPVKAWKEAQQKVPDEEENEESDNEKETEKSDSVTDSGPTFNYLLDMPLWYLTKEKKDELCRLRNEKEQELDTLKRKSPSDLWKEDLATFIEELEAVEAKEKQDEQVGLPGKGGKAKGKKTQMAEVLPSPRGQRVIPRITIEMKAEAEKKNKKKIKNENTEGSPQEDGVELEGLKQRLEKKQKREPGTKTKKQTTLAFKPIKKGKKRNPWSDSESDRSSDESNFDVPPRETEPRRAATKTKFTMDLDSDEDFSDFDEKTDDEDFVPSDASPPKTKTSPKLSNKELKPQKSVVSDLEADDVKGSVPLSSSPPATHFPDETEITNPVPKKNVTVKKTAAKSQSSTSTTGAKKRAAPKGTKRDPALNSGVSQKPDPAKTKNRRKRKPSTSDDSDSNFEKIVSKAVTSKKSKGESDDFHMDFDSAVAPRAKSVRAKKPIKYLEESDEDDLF
Method: Figure 2 Poison activity of the hybrid compounds. Agarose gel electrophoresis of plasmid DNA incubated in the absence (no enzyme) or presence of 1 U of topoII containing either 1% DMSO as control vehicle (no enzyme and topoII lanes) or 200 μM compound. Labels are shown above each lane. Numbers at the bottom correspond to the normalized intensity of the linear form (FIII). Plasmid forms are indicated by the arrow-points on the right: supercoiled (FI), nicked (FII), and linear (FIII).
Poison activity of the compounds was evaluated using a cleavage complex assay (Inspiralis) as described previously.[60] Compounds were tested at a fixed concentration of 200 μM in the presence of 1 U of topoisomerase II and 500 ng of […] plasmid at 37 °C for 6 min. Final DMSO concentration in the assay was 1%. Reaction products were subjected to electrophoresis in a 1% agarose gel, stained with SYBR Safe DNA stain, and DNA bands were visualized and quantified as described above.

[3] = aqueous thermodynamic solubility; type: physicochemical; details: PBS pH 7.4, 24 h, 25°C
Method: (§1) 3. Aqueous t herm odynam ic solu bili ty
(§2) The thermodynamic solubility of 3f was determined by addition of Phosphate Buffered Saline (PBS) at pH 7. 4 to an exces s of solid compound.
(§3) The assay was performed by incubation of an aliquot of 2. 5mg of test compound in 500µL of PBS at pH 7. 4. The suspension was shaken at 300 RPM for 24h at 25°C. At the end of the incubation period, the saturated solution was filtered and analyzed by UPLC/MS for the quantification of dissolved compound (in µM) by UV at a specific wavelength ( λmax of the test compound). The analyses were performed on a Waters ACQUITY UPLC/MS SQD system equipped with an ESI ion source. The analyses were run on an ACQUITY UPLC BEH C 18 column (50x2. 1mmI D, particle size 1. 7µm) with a VanGuard BEH C 18 pr e-column (5x2. 1mmID, particle size 1. 7µm), using H 2O + 0. 1% HCOOH (A) and CH 3CN + 0. 1% HCOOH (B) as mobile phase.
(§4) 4. Plasm a Protei n Bindi ng
(§5) The assay was conducted in triplicate in human and mouse plasma. An appropriate volume of plasma was spiked with a known amount of 10mM DMSO stock solution of the test compound, thus reaching the incubation concentrations of 0. 5, 1 and 5 µM. […] At this point, the supernatants were ready for injections in the UPLC -MS/ MS system. […] Plasma protein binding was calculated applying appropriate corrections to compensate for dilutions during sampling.

[4] = plasma protein binding (rapid equilibrium dialysis), mouse; type: in vitro ADME; details: pH 7.4
Method: as §1, §2, §3, §4, §5

## O=C(Nc1cccc(OC(F)(F)F)c1)c1c(O)n(-c2ccccc2)c(=S)n(-c2ccccc2)c1=O [3f, 6-Hydroxy-4-oxo-1,3-diphenyl-2-thioxo-N-(3-(trifluoromethoxy)phenyl)-1,2,3,4-tetrahydropyrimidine-5-carboxamide]
[1]; DU145 prostate cancer cells
  IC50: 4.7 ± 0.1 µM
[1]; Homo sapiens, DU-145, DU145 prostate cancer cells
  IC50: < 5 µM
[2]; 200 μM compound, 1 U topoII, plasmid DNA
  mode of action in cleavage complex formation assay: confirmed to be poisons
[2]; 200 μM concentration, linear form (FIII) intensity
  poison efficacy, fold better than ARN16267: about 1.5 fold
[3]
  solubility thermodynamic at 24 h: 30 µM (≈ 15 µg/mL)
[4]
  fraction unbound at 3 h: < 0.01

— paper PMC7997578, “Design, Synthesis, Dynamic Docking, Biochemical Characterization, and in Vivo Pharmacokinetics Studies of Novel Topoisomerase II Poisons with Promising Antiproliferative Activity” (Journal of Medicinal Chemistry, 2020)
